Source: patent US7179816B2, “Chemical derivatives and their application as antitelomerase agents” (Aventis Pharma S.A., priority 2001, dated 2007)

How the values were obtained:
[1] = test system: human telomerase (extract of HL60 cells enriched in telomerase activity); test: TRAP assay of telomerase activity (extension of oligonucleotide TS, PCR amplification); type: biochemical; settings: compounds at 10, 1, 0.1 and 0.01 μg/ml
Description: The antitelomerase biological activity is determined by the following experimental protocol:
Preparation of the Extract Enriched in Human Telomerase Ectivity:
The leukemia line HL60 is obtained from ATCC (American Type Culture Collection, Rockville USA). The cells are cultured in suspension in RPMI 1640 medium containing L-Glutamine at 2 mM, Penicillin 200 U/ml, streptomycin 200 μg/ml, gentamycin 50 μg/ml and supplemented with 10% heat-inactivated fetal calf serum.
An aliquot of 10^5 cells is centrifuged at 3000×G and the supernatant discarded. […]
The samples are then analyzed by electrophoresis on 12% acrylamide gel in a 1×TBE buffer for 1 hour at a voltage of 200 volts, with the aid of a Novex electrophoresis system. […]
The analysis and the quantification of the reaction products are carried out with the aid of an InstantImager apparatus (Pacard).
For each compound concentration tested, the results are expressed as percentage inhibition of the reaction and calculated from the untreated enzymatic control and from the enzyme-free sample (blank) according to the following formula: (Compound Value−blank value/enzymatic control value−blank value)×100. […]
A compound is considered to be active as an antitelomerase agent when the quantity inhibiting 50% of the telomerase reaction is less than 5 μM.

[2] = test system: G-quadruplex of oligonucleotide GGGTTAGGGTTAGGGTTAGGG (3.5 repeats of the human telomeric motif); test: G-quadruplex stabilisation, fluorescence Tm of FAM+DABCYL oligonucleotide; type: binding; settings: test product 1 μM, oligonucleotide 0.2 μM, 0.1 M LiCl, 10 mM cacodylate buffer pH 7.6; reference Tm 44° C.
Text: The G-quadruplex stabilizing activity may be determined by a method using the formation of a complex with fluorescein, as described below.
All the oligonucleotides, modified or otherwise, were synthesized by Eurogentec SA, Seraing, Belgium. The oligonucleotide FAM+DABCYL carries the catalog reference OL-0371–0802. It has the sequence: […] (SEQ ID NO:1) corresponding to 3.5 repeats of the human telomeric motif (strand rich in G). The fluorescein is chemically attached to the 5′ end, and the DABCYL to the 3′ end, as described by Eurogentec. The concentration of the samples is checked by spectrophotometry, recording the absorbance spectrum between 220 and 700 nm and using the molar extinction coefficient provided by the supplier. […]
All the measurements of fluorescence were carried out on a Spex Fluorolog DM1B apparatus, using an excitation line width of 1.8 nm and an emission line width of 4.5 nm. […] The oligonucleotide alone was analyzed at 20, 30, 40, 50, 60, 70 and 80° C. The emission spectra are recorded using an excitation wavelength of 470 nm. The excitation spectra are recorded using either 515 nm or 588 nm as emission wavelength. […] A high extinction (80–90%) of the fluorescence of fluorescein at room temperature is observed, in agreement with an intramolecular folding of the oligonucleotide at 20° C. in the form of a G-quadruplex. […]

Compound	IC50 [1] [nM]	G-4 ΔTm [2] [°C]
N6-[(6-(3-dimethylaminopropylamino)-4-diethylamino-[1,3,5]triazin-3-yl]-2-methylquinoline-4,6-diamine [Example 2-1]	900	7.9
CSc1nc(NCCN(C)C)nc(Nc2ccc3nc(C)cc(N)c3c2)n1 [Example 1-1, N6-[6-(2-dimethylaminoethylamino)-4-methylsulfanyl-[1,3,5]triazin-2-yl]-2-methylquinoline-4,6-diamine]	790	6
